According to patent publication US20070037752A1, “Novel alanyl-amino peptidase inhibitors for functionally influencing different cells and treating immunological, inflammatory, neuronal, and other diseases” (priority 2003, published 2007):
pIC50: −log10 of the molar value. Where two headings read alike, the source gives them in different places. One block for each compound: values may come before it. Non-standard residues stand in square brackets, D forms with d. Residues, ends and D or L forms follow the SMILES beside them.

Target: alanyl aminopeptidases (APN) (Homo sapiens, UniProt P15144)
Experiment: Inhibition of alanyl aminopeptidase enzymatic activity, fluorogenic substrate (Ala)2-rhodamine 110
Assay type: biochemical
Experimental: The inhibition characteristics measured are referred to as IC-50 values or ID50 values (the latter marked with “*”) for said enzyme. The enzymatic activity was determined by means of the fluorogenic substrate/product (Ala)2-rhodamine 110.

[1] = Table 4, unstarred values, read-out: IC50APN
[2] = Table 3, starred values = ID50, read-out: ID50 APN (values marked with *)
[3] = Table 3, unstarred values, read-out: IC50APN
[4] = Table 9, unstarred values, read-out: IC50APN
[5] = Table 8, unstarred values, read-out: IC50APN

Sequence of alanyl aminopeptidases (APN) (P15144 whole entry, species assumed): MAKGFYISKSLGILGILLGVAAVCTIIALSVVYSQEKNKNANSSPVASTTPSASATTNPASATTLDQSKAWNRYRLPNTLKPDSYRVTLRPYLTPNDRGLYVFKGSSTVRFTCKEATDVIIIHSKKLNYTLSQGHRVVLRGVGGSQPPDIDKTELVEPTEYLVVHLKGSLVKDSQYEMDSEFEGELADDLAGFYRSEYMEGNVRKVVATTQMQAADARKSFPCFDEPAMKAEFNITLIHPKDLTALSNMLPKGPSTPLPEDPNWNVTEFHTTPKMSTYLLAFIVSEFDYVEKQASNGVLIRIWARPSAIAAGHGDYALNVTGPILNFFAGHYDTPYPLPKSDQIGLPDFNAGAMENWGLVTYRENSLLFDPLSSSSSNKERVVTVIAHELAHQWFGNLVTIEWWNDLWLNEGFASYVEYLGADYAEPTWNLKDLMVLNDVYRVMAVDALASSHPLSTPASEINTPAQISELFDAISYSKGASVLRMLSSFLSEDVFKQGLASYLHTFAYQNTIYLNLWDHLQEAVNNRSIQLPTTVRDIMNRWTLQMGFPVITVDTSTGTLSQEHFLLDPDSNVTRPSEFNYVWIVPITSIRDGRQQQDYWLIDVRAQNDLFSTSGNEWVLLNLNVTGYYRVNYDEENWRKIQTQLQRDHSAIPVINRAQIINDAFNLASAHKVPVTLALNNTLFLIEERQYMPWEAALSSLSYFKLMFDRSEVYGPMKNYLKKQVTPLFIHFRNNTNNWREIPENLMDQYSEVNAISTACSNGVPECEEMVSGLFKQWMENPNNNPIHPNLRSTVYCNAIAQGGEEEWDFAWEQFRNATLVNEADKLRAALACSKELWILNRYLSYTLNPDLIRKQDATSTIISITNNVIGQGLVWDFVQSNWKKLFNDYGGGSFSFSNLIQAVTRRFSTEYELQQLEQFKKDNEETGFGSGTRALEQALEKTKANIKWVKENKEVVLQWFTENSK

pIC50 [2]: 5.66
SMILES: CCCCc1noc2c1/C(=N/O)CC(c1ccccc1)C2 (stereo not shown) [A3.006]

pIC50 [3]: 4.67
SMILES: O=C1C(Cc2ccc(O)cc2)NC(=S)N1C1CCCCC1 (stereo not shown) [A3.118]

pIC50 [4]: 4.54
SMILES: Cc1ccc(C(=O)N/C(=C\c2ccco2)C(=O)N2CCOCC2)cc1C [A9.073]

pIC50 [1]: 4.64
SMILES: COc1cc(/C=N/NC(=O)/C(=C\c2ccc(N(C)C)cc2)NC(=O)c2ccccc2)cc([N+](=O)[O-])c1O [A4.069]

pIC50 (Table 7, read-out: IC50APN): 4.93
SMILES: Cc1ccc(S(=O)(=O)CNC(=S)c2ccc3ccccc3c2)cc1 [A7.004]

pIC50 [5]: 4.18
SMILES: O=C1C(Cc2ccc(O)cc2)NC(=S)N1c1ccccc1 (stereo not shown) [A8.035]

pIC50 [5]: 4.84
SMILES: CN(/N=C/c1sc(=O)[nH]c1Cl)c1ccccc1 [A8.014]

pIC50 [3]: 4.58
SMILES: O=C1C(Cc2ccccc2)NC(=S)N1c1ccccc1 (stereo not shown) [A3.151]

pIC50 [3]: 5.18
SMILES: CCc1cccc(CC)c1NC(=S)N/N=C1\C(=O)N(CN2CC(C)CC(C)C2)c2ccccc21 (stereo not shown) [A3.024]

pIC50 [4]: 4.70
SMILES: CC1CCCCN1S(=O)(=O)c1ccc(NC(=O)/C=C/c2ccco2)cc1 (stereo not shown) [A9.047]

pIC50 [1]: 4.59
SMILES: O=C(N/N=C/c1cc([N+](=O)[O-])ccc1O)c1ccc(Cl)cc1 [A4.078]

pIC50 (Table 12, read-out: IC50APN): 5.25
SMILES: Cc1cc(Cl)ccc1OCCCC(=O)NO [A12.006]

pIC50 [3]: 4.52
SMILES: Cc1ccc(/C=N/NC(=O)c2cccc(I)c2)o1 [A3.184]

pIC50 [3]: 4.35
SMILES: COc1ccccc1C(=O)N/N=C/c1ccco1 [A3.243]

pIC50 (Table 11, read-out: IC50APN): 4.48
SMILES: CC(=O)N1CCOC1(C)c1ccc([N+](=O)[O-])cc1 (stereo not shown) [A11.024]

pIC50 [1]: 4.87
SMILES: CCc1ccc(-c2cc(C(=O)N/N=C/c3c(C)nn(-c4ccccc4)c3C)[nH]n2)cc1 [A4.027]

pIC50 (Table 13, read-out: IC50APN): 4.43
SMILES: CCCOC(=O)c1cc(-c2ccc(/C=C3\C(=O)NC(=O)C(C#N)=C3C)o2)ccc1Cl [A13.016]

pIC50 (Table 12, read-out: IC50APN): 4.88
SMILES: CC(C)COc1ccc(C(=O)N/C(=C\c2ccco2)C(=O)N2CCOCC2)cc1 [A12.025]

pIC50 (Table 12, read-out: IC50APN): 5.12
SMILES: CCOc1ccc(CC(=O)NO)cc1 [A12.013]

pIC50 [4]: 5.09
SMILES: COc1ccc(Cl)cc1C(=O)N/C(=C/c1ccco1)C(=O)N1CC2CC(C1)c1cccc(=O)n1C2 (stereo not shown) [A9.015]

pIC50 [3]: 4.58
SMILES: O=C1CNC(c2cccc([N+](=O)[O-])c2)N1O (stereo not shown) [A3.161]

pIC50 (Table 7, read-out: IC50APN): 4.67
SMILES: O=C1C(Cc2ccc(O)cc2)NC(=S)N1C1CCCCC1 (stereo not shown) [A7.011]

pIC50 (Table 13, read-out: IC50APN): 4.98
SMILES: Cc1ccc(/C=N/NC(=O)c2cccc(Cl)c2)o1 [A13.005]

pIC50 [2]: 3.64
SMILES: CN(C)c1ccc(C2NCCS2)cc1 (stereo not shown) [A3.338]

Continued, compound first:

SMILES: O=C(CNS(=O)(=O)c1ccc2c(c1)OCCO2)N/N=C/c1ccco1 [A4.148]
pIC50 [1]: 4.25

SMILES: O=C(N/N=C\c1ccco1)c1cnccn1 [A9.079]
pIC50 [4]: 4.52

SMILES: O=C(N/N=C\c1ccco1)c1cnccn1 [A3.185]
pIC50 [3]: 4.52

SMILES: NCCCC[C@@H](N)C(=O)N[C@H](Cc1ccccc1)C(=O)N[C@H](Cc1ccc(O)cc1)C(=O)O [A12.011] (H-[dK]-[dF]-[dY]-OH)
pIC50 (Table 12, read-out: IC50APN): 5.14

SMILES: Cc1cc(I)ccc1CC(=O)CCC(=O)N/N=C/c1ccco1 [A3.095]
pIC50 [3]: 5.02

SMILES: CCOC(=O)CCCCC(=O)c1c(C)n(C(=O)c2ccc(N3C(=O)CCC3=O)cc2)c(=O)n1C(=O)c1ccc(N2C(=O)CCC2=O)cc1 [A8.017]
pIC50 [5]: 4.81

SMILES: Cc1cccc(C)c1Nc1c(-c2ccccc2NC(=O)Nc2ccccc2)nc2c(C(=O)NCc3ccc(F)cc3)cccn12 [A8.015]
pIC50 [5]: 4.83

SMILES: O=C(N/C(=C\c1ccco1)C(=O)N1CCOCC1)c1ccco1 [A9.029]
pIC50 [4]: 4.87

SMILES: COCc1nnn(-c2nonc2N)c1C(=O)N/N=C/c1ccco1 [A2.004]
pIC50 (Table 2, read-out: IC50APN): 4.90

SMILES: O=C(CNC(=O)c1ccccc1Br)N/N=C/c1ccco1 [A3.314]
pIC50 [2]: 4.04

SMILES: Nc1nonc1-n1nnc(C(=O)N/N=C/c2ccco2)c1-c1ccccc1 [A2.008]
pIC50 (Table 2, read-out: IC50APN): 4.33

SMILES: Cc1cc(C)cc(OCC(=O)N/N=C/c2ccco2)c1 [A4.070]
pIC50 [1]: 4.63

SMILES: Cc1ccccc1C(=O)N1CCC(C(=O)Nc2ccc(OCc3ccccc3)cc2)CC1 [A9.102]
pIC50 [4]: 4.27

SMILES: CCOC(=O)c1ncn(C(=O)OC)c1N [A3.002]
pIC50 [2]: 6.05

SMILES: O=C(N/N=C/c1ccco1)c1cc(-c2ccccc2Cl)n[nH]1 [A4.163]
pIC50 (Table 4, starred values = ID50, read-out: ID50 APN (values marked with *)): 4.12

SMILES: O=C(OCC1CCCO1)c1cc([N+](=O)[O-])cc([N+](=O)[O-])c1 (stereo not shown) [A11.028]
pIC50 (Table 11, read-out: IC50APN): 4.41

SMILES: CCCOC(=O)c1cc(-c2ccc(/C=C3/C(=O)N(CC(C)O)C(=O)C(C#N)=C3C)o2)ccc1Cl (stereo not shown) [A9.083]
pIC50 [4]: 4.49

SMILES: O=C1C=CC(=O)N1c1cc([N+](=O)[O-])ccc1F [A11.015]
pIC50 (Table 11, read-out: IC50APN): 4.68

SMILES: O=C(O)c1cc2nc(-c3ccco3)cc(C(F)(F)Cl)n2n1 [A9.028]
pIC50 [4]: 4.88

SMILES: Cc1ccccc1S(=O)(=O)Nc1cccc(C(=O)N/N=C/c2ccco2)c1 [A4.049]
pIC50 [1]: 4.72

SMILES: O=C(N/N=C/c1ccco1)c1ccccc1O [A3.075]
pIC50 [3]: 4.80

SMILES: Cn1c(=O)c2c(ncn2CC(=O)N/N=C/C=C\c2ccco2)n(C)c1=O [A9.113]
pIC50 (Table 9, starred values = ID50, read-out: ID50 APN (values marked with *)): 4.10
